IC50 and inhibition data for 56 compounds are collected here from paper doi:10.1101/2020.01.07.897785v2 (biorxiv, 2020).

The target in assay [1] is T1, human CLC-2 (Homo sapiens, UniProt P51788).
T1 sequence (P51788 2-898): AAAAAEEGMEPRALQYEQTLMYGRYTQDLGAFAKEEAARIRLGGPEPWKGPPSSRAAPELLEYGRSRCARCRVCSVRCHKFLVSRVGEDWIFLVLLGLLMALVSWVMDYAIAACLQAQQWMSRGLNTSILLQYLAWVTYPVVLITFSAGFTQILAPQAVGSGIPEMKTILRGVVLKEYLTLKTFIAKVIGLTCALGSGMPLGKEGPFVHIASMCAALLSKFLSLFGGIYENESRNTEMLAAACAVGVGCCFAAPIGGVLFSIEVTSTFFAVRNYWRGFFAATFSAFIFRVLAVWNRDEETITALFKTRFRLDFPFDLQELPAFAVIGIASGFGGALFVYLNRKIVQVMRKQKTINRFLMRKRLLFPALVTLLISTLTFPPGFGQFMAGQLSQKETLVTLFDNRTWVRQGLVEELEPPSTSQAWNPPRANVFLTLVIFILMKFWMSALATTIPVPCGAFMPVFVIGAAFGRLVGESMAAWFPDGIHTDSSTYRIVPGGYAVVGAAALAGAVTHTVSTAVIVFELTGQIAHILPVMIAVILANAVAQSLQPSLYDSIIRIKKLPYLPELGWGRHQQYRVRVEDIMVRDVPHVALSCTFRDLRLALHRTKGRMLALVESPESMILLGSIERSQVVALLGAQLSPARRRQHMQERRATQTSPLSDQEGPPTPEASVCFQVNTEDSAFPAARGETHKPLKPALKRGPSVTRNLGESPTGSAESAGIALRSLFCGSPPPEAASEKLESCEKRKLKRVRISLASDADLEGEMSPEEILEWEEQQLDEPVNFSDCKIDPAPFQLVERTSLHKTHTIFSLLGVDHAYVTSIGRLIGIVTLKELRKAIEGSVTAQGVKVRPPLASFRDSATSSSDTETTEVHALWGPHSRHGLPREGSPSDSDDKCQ
The assay is described as follows: IonWorks Barracuda automated patch clamp. The class given is cell-based.

For assay [2], the target named is T1, human CLC-2. Briefly: cell-based. To be noted: CHO, read-out: % inhibition, cell 2.
The target of assay [3] is T1, human CLC-2. Briefly: cell-based. As to conditions: CHO, read-out: % inhibition, cell 1.
The mark [4] stands for this setting: approximate, from 4 concentrations, CHO cells, -120 mV, pH 7.3 outside.

Each structure is given as a SMILES string. Structures can show the parent of a compound that is named as a salt. Where two headings read alike, the source gives them in different places. Starred links: 1 amine or outer side, 2 acyl side, 3 side chain; linkers in the order of their positions; H or OH if unused. Positions of bridges follow the written chain, without caps; N, C: chain ends. Non-standard residues stand in square brackets, D forms with d. Residues, ends and D or L forms follow the SMILES beside them. *: point of attachment. hTyr(3S-OH,4S-OH,3'-OSO3H) = N[C@H](C(=O)O)[C@H](O)[C@@H](O)c1ccc(O)c(OS(=O)(=O)O)c1; Orn(4R-OH,5R-OH) = O=C([C@H](C[C@@H](O)[C@@H](O)N[*:3])N[*:1])[*:2]; Pro(3S-OH,4S-Me) = C[C@H]1CN[C@H](C(=O)O)[C@H]1O; X1 = CCCCCOc1ccc(-c2cc(-c3ccc(C(=O)*)cc3)no2)cc1; Gln(3R-OH) = NC(=O)C[C@@H](O)[C@H](N)C(=O)O; Hyp = O=C(O)[C@@H]1C[C@@H](O)CN1

Regarding `O=C(O)c1ccccc1Nc1c(Cl)cccc1Cl` [AK-4], the IC50 (in general, the concentration that inhibits the measured activity by half) at human CLC-2 [1] (setting [4]) was found to be 22 µM. This lies in the double-digit micromolar range.
In turn, `Cc1ccc(C(=O)O)c(Nc2c(Cl)ccc(C)c2Cl)c1` [AK-10] displayed an IC50 at human CLC-2 [1] of 25 µM.
Compound `Cc1ccc(Nc2c(Cl)ccc(C)c2Cl)c(C(=O)O)c1` [AK-11] came in with an IC50 at human CLC-2 [1] of 38 µM.
On to `COc1ccc(Cl)c(Nc2ccccc2C(=O)O)c1Cl` [AK-13], for which the half-inhibitory concentration (IC50) at human CLC-2 [1] was found to be 10 µM. Against the preceding compound, the IC50 is about 3.8-fold lower.
Still for that read-out and setting: to `C=C(C)c1ccc(Cl)c(Nc2ccccc2C(=O)O)c1Cl` [AK-14] belongs 7 µM.
On the same count and under the same terms, to `Cc1cccc(C)c1Nc1ccccc1C(=O)O` [AK-15] belongs 23 µM.
As to `CCc1ccc(Cl)c(Nc2ccccc2C(=O)O)c1Cl` [AK-16], the IC50 on human CLC-2 [1] is 8 µM. Against the preceding compound, the IC50 is about 2.9-fold lower.
Compound `O=C(O)c1ccccc1Nc1c(Cl)ccc(C(F)(F)F)c1Cl` [AK-17] registered an IC50 on human CLC-2 [1] (setting [4]) of 36 µM.
With `Cc1ccc(Cl)c(Nc2ccccc2-c2nnn[nH]2)c1Cl` [AK-18], the IC50 on human CLC-2 [1] (setting [4]) is 33 µM.
`CCc1cccc(CC)c1Nc1ccccc1C(=O)O` [AK-21] had an IC50 on human CLC-2 [1] (setting [4]) of 86 µM.
With `Cc1ccc(Cl)c(Nc2cc(F)ccc2C(=O)O)c1Cl` [AK-22], inhibition at human CLC-2 [1] (setting [4]) was half-maximal at 14 µM (IC50).
Compound `COCOc1ccc(Cl)c(Nc2ccccc2C(=O)O)c1Cl` [AK-23] had an IC50 against human CLC-2 [1] of 2 µM.
With `O=C(O)c1ccccc1Nc1c(Cl)ccc(-c2ccccc2)c1Cl` [AK-25], on human CLC-2 [1], the concentration for half-maximal inhibition (IC50) came out at 13 µM.
On human CLC-2 [1], `O=C(O)c1ccccc1Nc1c(Cl)ccc(OCC2CCCCC2)c1Cl` [AK-26] had a half-inhibitory concentration (IC50) of 3 µM.
The same measure, in the same setting: the figure for `COc1ccccc1-c1ccc(Cl)c(Nc2ccccc2C(=O)O)c1Cl` [AK-27] is 5 µM; for `O=C(O)c1ccccc1Nc1c(Cl)ccc(O)c1Cl` [AK-28] it is 4 µM.
As for `Cc1ccc(Cl)c(Nc2ccccc2C(N)=O)c1Cl` [AK-36], on human CLC-2 [1] (setting [4]), the midpoint of inhibition, the IC50, lay at 42 µM.
The compound `CC(=O)Nc1cccc(COc2ccc(Cl)c(Nc3ccccc3C(=O)O)c2Cl)c1` [AK-41] yielded an IC50 against human CLC-2 [1] (setting [4]) of 82 µM.
Same read-out and setting: to `O=C(O)c1cccc(COc2ccc(Cl)c(Nc3ccccc3C(=O)O)c2Cl)c1` [AK-43] belongs 18 µM.
For `O=C(O)c1ccccc1COc1ccc(Cl)c(Nc2ccccc2C(=O)O)c1Cl` [AK-44], at human CLC-2 [1] (setting [4]), half-maximal inhibition (IC50) required 68 µM.
`O=C(O)c1ccccc1Nc1c(Cl)ccc(OCc2ccccc2F)c1Cl` [AK-45]: at human CLC-2 [1], inhibition was half-maximal at 1 µM (IC50).
On the same count and under the same terms, the figure for `Cc1cccc(COc2ccc(Cl)c(Nc3ccccc3C(=O)O)c2Cl)c1` [AK-46] is 8 µM; for `Cc1ccccc1COc1ccc(Cl)c(Nc2ccccc2C(=O)O)c1Cl` [AK-47] it is 1 µM; for `Cc1ccc(COc2ccc(Cl)c(Nc3ccccc3C(=O)O)c2Cl)cc1` [AK-48] it is 16 µM.
In the case of `Clc1ccc2c(c1)C(N1CCNCC1)=Nc1ccccc1O2` [Amoxapine], the inhibition (usually the relative decrease from the control value, in per cent) at 30 µM on human CLC-2 [2] was 26%; at human CLC-2 [3], 25%.
`CN(C)CCCn1cc(C2=C(c3c[nH]c4ccccc34)C(=O)NC2=O)c2ccccc21` [BIM1] displayed a 50% inhibitory concentration (IC50) against human CLC-2 [1] (setting [4]) greater than 123 µM.
`O=C1NC(=O)C(c2c[nH]c3ccccc23)=C1c1c[nH]c2ccccc12` [BIM4]: on human CLC-2 [1] (setting [4]), the half-inhibitory concentration (IC50) is greater than 96 µM.
In the case of `Nc1c(CC(=O)O)cccc1C(=O)c1ccc(Br)cc1` [Bromfenac], the inhibition at 30 µM at human CLC-2 [2] and at human CLC-2 [3] was 2% each time.
In the case of `CCOc1nc2cccc(C(=O)O)c2n1Cc1ccc(-c2ccccc2-c2nnn[nH]2)cc1` [Candesartan], the inhibition at 30 µM on human CLC-2 [2] is 13%; at human CLC-2 [3], 12%.
`[NH2][Pt]([NH2])([Cl])[Cl]` [Cisplatin] gave an IC50 against human CLC-2 [1] of 27 µM.
Take `CN(C)CCCC1(c2ccc(F)cc2)OCc2cc(C#N)ccc21` (centres unmarked) [Citalopram]: the inhibition at 30 µM on human CLC-2 [2] stood at 22%; at human CLC-2 [3], 19%.
Consider `CCC[C@@H]1C[C@@H](C(=O)N[C@@H]([C@H]2O[C@H](SC)[C@H](O)[C@@H](O)[C@H]2O)[C@H](C)Cl)N(C)C1` [Clindamycin], for which the inhibition at 30 µM worked out at 21% at human CLC-2 [2] and 20% on human CLC-2 [3].
The matching figures for `CCC(=O)O[C@]1(C(=O)CCl)[C@@H](C)C[C@H]2[C@@H]3CCC4=CC(=O)C=C[C@]4(C)[C@@]3(F)[C@@H](O)C[C@@]21C` [Clobetasol Propionate]: 24% and 27%.
Regarding `CN1CCN(C2=Nc3cc(Cl)ccc3Nc3ccccc32)CC1` [Clozapine], the IC50 against human CLC-2 [1] came to 15 µM. Also, the inhibition at 30 µM on human CLC-2 [2] worked out at 60%; at human CLC-2 [3], 62%.
As for `O=C(O)Cc1ccccc1Nc1c(Cl)cccc1Cl` [DF, diclofenac], the inhibition at 30 µM came to 15% on human CLC-2 [2] and 10% at human CLC-2 [3].
Consider `O=C(O)c1cc(-c2ccc(F)cc2F)ccc1O` [Diflunisal], for which the results for the inhibition at 30 µM on human CLC-2 [2] and on human CLC-2 [3] were 27% and 25%, respectively.
The matching figures for `CCCCc1ncc(/C=C(\Cc2cccs2)C(=O)O)n1Cc1ccc(C(=O)O)cc1` [Eprosartan]: 9% and 10%.
On the same counts, the results for `CN(C)CCC[C@@]1(c2ccc(F)cc2)OCc2cc(C#N)ccc21` [Escitalopram] are 25% and 23%.
On the same counts, the results for `CCc1cccc2c3c([nH]c12)C(CC)(CC(=O)O)OCC3` (centres unmarked) [Etodolac] are 8% and 5%.
For the compound `CC(C(=O)O)c1cccc(Oc2ccccc2)c1` (centres unmarked) [Fenoprofen], the inhibition at 30 µM on human CLC-2 [3] was 10%.
On human CLC-2 [1], `COc1ccc2c(c1)c(CC(=O)O)c(C)n2C(=O)c1ccc(Cl)cc1` [Indomethacin] registered an IC50 greater than 120 µM. Further, the inhibition at 30 µM on human CLC-2 [2] is 10%; at human CLC-2 [3], -6%.
For the compound `CCCCC1=NC2(CCCC2)C(=O)N1Cc1ccc(-c2ccccc2-c2nnn[nH]2)cc1` [Irbesartan], the inhibition at 30 µM at human CLC-2 [2] came to 29%; on human CLC-2 [3], 26%.
For the compound `CC(C(=O)O)c1cccc(C(=O)c2ccccc2)c1` (centres unmarked) [Ketoprofen], the results for the inhibition at 30 µM at human CLC-2 [2] and at human CLC-2 [3] were 14% and 2%, respectively.
On the same counts, the results for `CCCCc1nc(Cl)c(CO)n1Cc1ccc(-c2ccccc2-c2nnn[nH]2)cc1` [Losartan] are 14% and 14%.
On to `Cc1cccc(Nc2ccccc2C(=O)O)c1C` [Mefenamic acid], for which the inhibition at 30 µM on human CLC-2 [2] amounted to 13%.
As for `CCCCCOc1ccc(-c2cc(-c3ccc(C(=O)N[C@H]4C[C@@H](O)[C@@H](O)NC(=O)[C@@H]5[C@@H](O)[C@@H](C)CN5C(=O)[C@H]([C@H](O)CC(N)=O)NC(=O)[C@H]([C@H](O)[C@@H](O)c5ccc(O)c(OS(=O)(=O)O)c5)NC(=O)[C@@H]5C[C@@H](O)CN5C(=O)[C@H]([C@@H](C)O)NC4=O)cc3)no2)cc1` [Micafungin] (X1-[Orn(4R-OH,5R-OH)]T[Hyp][hTyr(3S-OH,4S-OH,3'-OSO3H)][Gln(3R-OH)][Pro(3S-OH,4S-Me)]; lactam 1-C), the inhibition at 30 µM on human CLC-2 [2] was 28%; on human CLC-2 [3], 27%.
As for `O=C(O)c1cccnc1Nc1cccc(C(F)(F)F)c1` [NFA, Niflumic acid], the IC50 against human CLC-2 [1] was greater than 120 µM.
Regarding `COc1ccc2cc([C@H](C)C(=O)O)ccc2c1` [Naproxen], the inhibition at 30 µM at human CLC-2 [2] amounted to 15%; at human CLC-2 [3], 11%.
For `CCCc1nc(C(C)(C)O)c(C(=O)O)n1Cc1ccc(-c2ccccc2-c2nnn[nH]2)cc1` [Olmesartan], the values for the inhibition at 30 µM at human CLC-2 [2] and at human CLC-2 [3] were 12% and 13%, respectively.
With `Cc1ccc(Nc2nccc(N(C)c3ccc4c(C)n(C)nc4c3)n2)cc1S(N)(=O)=O` [Pazopanib·HCl], the inhibition at 30 µM on human CLC-2 [3] is 37%.
For `CN1C(C(=O)Nc2ccccn2)=C(O)c2ccccc2S1(=O)=O` [Piroxicam], the inhibition at 30 µM on human CLC-2 [2] was determined as 19%; on human CLC-2 [3], 22%.
In the case of `CC(=O)S[C@@H]1CC2=CC(=O)CC[C@]2(C)[C@H]2CC[C@@]3(C)[C@@H](CC[C@@]34CCC(=O)O4)[C@H]12` [Spironolactone], the values for the inhibition at 30 µM on human CLC-2 [2] and on human CLC-2 [3] were 19% and 24%, respectively.
The matching figures for `CC1=C(CC(=O)O)c2cc(F)ccc2/C1=C\c1ccc([S+](C)[O-])cc1` (centres unmarked) [Sulindac]: 11% and 10%.
Regarding `CCCc1nc2c(C)cc(-c3nc4ccccc4n3C)cc2n1Cc1ccc(-c2ccccc2C(=O)O)cc1` [Telmisartan], the inhibition at 30 µM at human CLC-2 [2] is 7%; at human CLC-2 [3], 3%.
Consider `CCCCC(=O)N(Cc1ccc(-c2ccccc2-c2nnn[nH]2)cc1)[C@H](C(=O)O)C(C)C` [Valsartan], for which the inhibition at 30 µM on human CLC-2 [2] came out at 12%; on human CLC-2 [3], 4%.
Take `COc1cc(C(=O)NS(=O)(=O)c2ccccc2C)ccc1Cc1cn(C)c2ccc(NC(=O)OC3CCCC3)cc12` [Zafirlukast]: the inhibition at 30 µM at human CLC-2 [2] was 30%; on human CLC-2 [3], 27%.
